Patent US20170051149A1, “AZOARYLS AS REVERSIBLY MODULATABLE TUBULIN INHIBITORS” (ECOLE NORMALE SUPERIEURE DE LYON, priority 2014, published 2017)

Test system: tubulin
Test: turbidimetric tubulin polymerisation assay with irradiation
Assay type: biochemical
Conditions: for tubulin polymerisation inhibition: 50 and 25 μM
Description: Turbidimetric tubulin polymerisation assays were performed as described in the literature^[29], following the increase in absorbance at 340 nm, but with the addition of irradiation supplied by the monochromator setup described in Part B. Two wavelengths were chosen for each compound, λE->Z (chosen to effect bulk trans->cis isomerisation, typically 390 nm), and λZ->E (chosen to effect bulk cis->trans isomerisation, typically 505 nm). The raw absorbance A(t) could be more clearly discussed by first correcting for any change in azoaryl absorbance over time by subtracting the absorbance of a control run performed without tubulin, yielding the corrected absorbance A*(t), and then taking its derivative R=dA*(t)/dt. Experiments were performed under six sets of conditions to illustrate the light control of tubulin polymerisation inhibition effected by the compounds of the invention: (a) in the dark (typical result: large R at the start decreasing rapidly over time), or (b) with constant irradiation at λE->Z (typical result: small R throughout the experiment), or (c) with constant irradiation at λZ->E (typical result: moderate R at the start decreasing slowly over time), or (d) with irradiation at λE->Z for an initial period then darkness (typical result: initial period with small R, then R increases after a while), or (e) with irradiation at λE->Z for a given period (typically 30 min) then irradiation at λZ->E (typical result: 30 minutes with small R, then R increases quickly to a moderate value which decreases slowly over time), or (f) with irradiation at λE->Z for a given period (usually 30 min) then a short irradiation at λZ->E (usually 30 seconds) then darkness (typical result: 30 minutes with small R, then R increases quickly to a moderate-to-large value which decreases slowly over time); the last three conditions required correction of A(t) to A*(t) to reveal the changes in absorption which were due only to tubulin polymerisation. It would be costly to determine light-dependent in vitro tubulin polymerisation IC50 values for each compound, eg. under protocols (a) and (b) (and/or (c)). This was not performed here since it was considered that such parameters have little predictive value in their intended complex biological settings, especially in light of the importance of biodistribution, tubulin-binding kinetics and lability (rather than thermodynamic binding strength) for tubulin disruption in biological settings.
Table 3 below illustrates typical results from experiments of type (a) (“DARK”) and (b) (“390 nm”) as described above, with compound (I.1) at concentrations well above the IC50 for the toxic regime, compared to a PBS-only control CTRL (no I.1 present).

COc1ccc(N=Nc2cc(OC)c(OC)c(OC)c2)cc1O [I.1, 2-methoxy-5-((3,4,5-trimethoxyphenyl)diazenyl)phenol] was tested, and the “A(λ = 340 nm)” value (25 μM, 390 nm, 0.0 min) was 0.0000, the “A(λ = 340 nm)” value (25 μM, 390 nm, 0.5 min) was −0.0026 and the “A(λ = 340 nm)” value (25 μM, 390 nm, 1.0 min) was −0.0022. For the same compound, the “A(λ = 340 nm)” value (25 μM, 390 nm, 1.5 min) was −0.0022, the “A(λ = 340 nm)” value (25 μM, 390 nm, 2.0 min) was −0.0010 and the “A(λ = 340 nm)” value (25 μM, 390 nm, 3.0 min) was 0.0004. The “A(λ = 340 nm)” value (25 μM, 390 nm, 3.5 min) was 0.0029, the “A(λ = 340 nm)” value (25 μM, 390 nm, 4.0 min) was 0.0027 and the “A(λ = 340 nm)” value (25 μM, 390 nm, 4.5 min) was 0.0034. The “A(λ = 340 nm)” value (25 μM, 390 nm, 5.0 min) was 0.0100, the “A(λ = 340 nm)” value (25 μM, 390 nm, 5.5 min) was 0.0094 and the “A(λ = 340 nm)” value (25 μM, 390 nm, 6.0 min) was 0.0132. For the same compound, the “A(λ = 340 nm)” value (25 μM, 390 nm, 6.5 min) was 0.0174, the “A(λ = 340 nm)” value (25 μM, 390 nm, 7.0 min) was 0.0171 and the “A(λ = 340 nm)” value (25 μM, 390 nm, 7.5 min) was 0.0222. For the same compound, the “A(λ = 340 nm)” value (25 μM, 390 nm, 8.0 min) was 0.0241, the “A(λ = 340 nm)” value (25 μM, 390 nm, 8.5 min) was 0.0259 and the “A(λ = 340 nm)” value (25 μM, 390 nm, 9.0 min) was 0.0288. The “A(λ = 340 nm)” value (25 μM, 390 nm, 9.5 min) was 0.0313, the “A(λ = 340 nm)” value (25 μM, 390 nm, 10.0 min) was 0.0341 and the “A(λ = 340 nm)” value (25 μM, 390 nm, 10.5 min) was 0.0358. The “A(λ = 340 nm)” value (25 μM, 390 nm, 11.0 min) was 0.0402, the “A(λ = 340 nm)” value (25 μM, 390 nm, 11.5 min) was 0.0413 and the “A(λ = 340 nm)” value (25 μM, 390 nm, 12.0 min) was 0.0443. For the same compound, the “A(λ = 340 nm)” value (25 μM, 390 nm, […]) was −0.0001, the “A(λ = 340 nm)” value (25 μM, DARK, 0.0 min) was 0.0000 and the “A(λ = 340 nm)” value (25 μM, DARK, 0.5 min) was 0.0001. The “A(λ = 340 nm)” value (25 μM, DARK, 1.0 min) was −0.0016, the “A(λ = 340 nm)” value (25 μM, DARK, 1.5 min) was 0.0018 and the “A(λ = 340 nm)” value (25 μM, DARK, 2.0 min) was 0.0119. For the same compound, the “A(λ = 340 nm)” value (25 μM, DARK, 3.0 min) was 0.0492, the “A(λ = 340 nm)” value (25 μM, DARK, 3.5 min) was 0.0689 and the “A(λ = 340 nm)” value (25 μM, DARK, 4.0 min) was 0.0851. The “A(λ = 340 nm)” value (25 μM, DARK, 4.5 min) was 0.0984, the “A(λ = 340 nm)” value (25 μM, DARK, 5.0 min) was 0.1073 and the “A(λ = 340 nm)” value (25 μM, DARK, 5.5 min) was 0.1133. The “A(λ = 340 nm)” value (25 μM, DARK, 6.0 min) was 0.1150, the “A(λ = 340 nm)” value (25 μM, DARK, 6.5 min) was 0.1212 and the “A(λ = 340 nm)” value (25 μM, DARK, 7.0 min) was 0.1249. For the same compound, the “A(λ = 340 nm)” value (25 μM, DARK, 7.5 min) was 0.1228, the “A(λ = 340 nm)” value (25 μM, DARK, 8.0 min) was 0.1250 and the “A(λ = 340 nm)” value (25 μM, DARK, 8.5 min) was 0.1259. The “A(λ = 340 nm)” value (25 μM, DARK, 9.0 min) was 0.1240, the “A(λ = 340 nm)” value (25 μM, DARK, 9.5 min) was 0.1276 and the “A(λ = 340 nm)” value (25 μM, DARK, 10.0 min) was 0.1276. The “A(λ = 340 nm)” value (25 μM, DARK, 10.5 min) was 0.1255, the “A(λ = 340 nm)” value (25 μM, DARK, 11.0 min) was 0.1290 and the “A(λ = 340 nm)” value (25 μM, DARK, 11.5 min) was 0.1299. The “A(λ = 340 nm)” value (25 μM, DARK, 12.0 min) was 0.1333, the “A(λ = 340 nm)” value (25 μM, DARK, […]) was 0.0274 and the “A(λ = 340 nm)” value (50 μM, 390 nm, 0.0 min) was 0.0000. For the same compound, the “A(λ = 340 nm)” value (50 μM, 390 nm, 0.5 min) was 0.0014, the “A(λ = 340 nm)” value (50 μM, 390 nm, 1.0 min) was 0.0020 and the “A(λ = 340 nm)” value (50 μM, 390 nm, 1.5 min) was 0.0033. The “A(λ = 340 nm)” value (50 μM, 390 nm, 2.0 min) was 0.0027, the “A(λ = 340 nm)” value (50 μM, 390 nm, 3.0 min) was 0.0066 and the “A(λ = 340 nm)” value (50 μM, 390 nm, 3.5 min) was 0.0074. For the same compound, the “A(λ = 340 nm)” value (50 μM, 390 nm, 4.0 min) was 0.0100, the “A(λ = 340 nm)” value (50 μM, 390 nm, 4.5 min) was 0.0084 and the “A(λ = 340 nm)” value (50 μM, 390 nm, 5.0 min) was 0.0122. For the same compound, the “A(λ = 340 nm)” value (50 μM, 390 nm, 5.5 min) was 0.0166, the “A(λ = 340 nm)” value (50 μM, 390 nm, 6.0 min) was 0.0163 and the “A(λ = 340 nm)” value (50 μM, 390 nm, 6.5 min) was 0.0172. For the same compound, the “A(λ = 340 nm)” value (50 μM, 390 nm, 7.0 min) was 0.0213, the “A(λ = 340 nm)” value (50 μM, 390 nm, 7.5 min) was 0.0209 and the “A(λ = 340 nm)” value (50 μM, 390 nm, 8.0 min) was 0.0221. For the same compound, the “A(λ = 340 nm)” value (50 μM, 390 nm, 8.5 min) was 0.0268, the “A(λ = 340 nm)” value (50 μM, 390 nm, 9.0 min) was 0.0268 and the “A(λ = 340 nm)” value (50 μM, 390 nm, 9.5 min) was 0.0293. The “A(λ = 340 nm)” value (50 μM, 390 nm, 10.0 min) was 0.0320, the “A(λ = 340 nm)” value (50 μM, 390 nm, 10.5 min) was 0.0318 and the “A(λ = 340 nm)” value (50 μM, 390 nm, 11.0 min) was 0.0327. The “A(λ = 340 nm)” value (50 μM, 390 nm, 11.5 min) was 0.0333, the “A(λ = 340 nm)” value (50 μM, 390 nm, 12.0 min) was 0.0359 and the “A(λ = 340 nm)” value (50 μM, 390 nm, […]) was 0.0052. The “A(λ = 340 nm)” value (50 μM, DARK, 0.0 min) was 0.0000, the “A(λ = 340 nm)” value (50 μM, DARK, 0.5 min) was 0.0010 and the “A(λ = 340 nm)” value (50 μM, DARK, 1.0 min) was 0.0014. For the same compound, the “A(λ = 340 nm)” value (50 μM, DARK, 1.5 min) was 0.0034, the “A(λ = 340 nm)” value (50 μM, DARK, 2.0 min) was 0.0128 and the “A(λ = 340 nm)” value (50 μM, DARK, 3.0 min) was 0.0552. The “A(λ = 340 nm)” value (50 μM, DARK, 3.5 min) was 0.0734, the “A(λ = 340 nm)” value (50 μM, DARK, 4.0 min) was 0.0926 and the “A(λ = 340 nm)” value (50 μM, DARK, 4.5 min) was 0.1046. For the same compound, the “A(λ = 340 nm)” value (50 μM, DARK, 5.0 min) was 0.1139, the “A(λ = 340 nm)” value (50 μM, DARK, 5.5 min) was 0.1209 and the “A(λ = 340 nm)” value (50 μM, DARK, 6.0 min) was 0.1269. The “A(λ = 340 nm)” value (50 μM, DARK, 6.5 min) was 0.1284, the “A(λ = 340 nm)” value (50 μM, DARK, 7.0 min) was 0.1262 and the “A(λ = 340 nm)” value (50 μM, DARK, 7.5 min) was 0.1379. The “A(λ = 340 nm)” value (50 μM, DARK, 8.0 min) was 0.1338, the “A(λ = 340 nm)” value (50 μM, DARK, 8.5 min) was 0.1359 and the “A(λ = 340 nm)” value (50 μM, DARK, 9.0 min) was 0.1367. For the same compound, the “A(λ = 340 nm)” value (50 μM, DARK, 9.5 min) was 0.1374, the “A(λ = 340 nm)” value (50 μM, DARK, 10.0 min) was 0.1397 and the “A(λ = 340 nm)” value (50 μM, DARK, 10.5 min) was 0.1370. For the same compound, the “A(λ = 340 nm)” value (50 μM, DARK, 11.0 min) was 0.1405, the “A(λ = 340 nm)” value (50 μM, DARK, 11.5 min) was 0.1417 and the “A(λ = 340 nm)” value (50 μM, DARK, 12.0 min) was 0.1402. For the same compound, the “A(λ = 340 nm)” value (50 μM, DARK, […]) was 0.0305, the tubulin polymerisation inhibition (390 nm irradiation) was “very strongly inhibited” and the tubulin polymerisation inhibition (in the dark) was “not inhibited”.
